The nature of data set [1]: Metabolic stability in pooled mouse liver microsomes. Type of data set: in vitro ADME. Here is the method:
LW6 (1 µM) was incubated with pooled mouse liver microsomes (0.5 mg/mL) in the absence or presence of NADPH (1 mM) to determine its conversion to APA. LW6 was degraded slowly in the absence or presence of NADPH, with 63% or 65% remaining after 60 min microsomal incubations, respectively (Figure 3A). […] APA, following its formation, gradually disappeared from the microsomal incubation media only in the presence of NAPDH (Figure 3A). To determine whether APA was metabolized by cytochrome P450 (CYP450), APA (1 µM) also was incubated with pooled male mouse liver microsomes (0.5 mg/mL) in the absence or presence of NADPH (1 mM).
All incubations were conducted in triplicate at 37 °C in eight-well tube strips placed in an 8 × 12 rack (VWR, Emeryville, CA). Incubation mixtures consisted of mouse liver microsomes (0.5 mg protein/mL), NADPH (1 mM), and LW6 (1 µM) or APA (1 µM) in 0.1 M potassium phosphate buffer (pH 7.4). The final incubation volume was 160 µL and the final acetonitrile content was 1%. Samples were preincubated for 5 min at 37 °C before adding LW6 or APA to initiate the reaction. The reaction was terminated at 0, 5, 15, 30, and 60 min by the addition of 320 µL of ice-cold acetonitrile containing the internal standard. Incubation mixtures were then centrifuged at 910× g for 10 min and the supernatant was analyzed by the LC-ESI/MS/MS method described below for quantitation of LW6 and APA.
For orientation: Liver microsomes are vesicles of endoplasmic reticulum, rich in cytochrome P450 enzymes.

In a further data set the test system is HCT116 xenograft. Briefly: HCT116 xenograft model study. The data set is classed as in vivo. The conditions noted are these: data not shown.
Data set [2] can be described thus: In vivo plasma pharmacokinetics after a single i.v. or p.o. dose in male ICR mice. Details: species or system mouse. Conditions: for half-life / Vd: male, ICR; for half-life / Vd / MRT / clearance: iv; for Cmax / Tmax: po. The text has this:
The animal experiments conducted in this study were approved by the Institutional Animal Care and Use Committee of the Korea Research Institute of Bioscience and Biotechnology (Chung-buk, Korea; KRIBB-AEC-15005, 9 January 2015) and performed in compliance with the National Institutes of Health Guidelines for the care and use of laboratory animals and Korean national laws for ethical conduct in the care and use of animals. Specific pathogen-free (SPF) male ICR mice (8 weeks old) were purchased from Koatech Co. (Pyeongtaek, Kyonggi, Republic of Korea) and maintained in an SPF environment at a temperature of 22 ± 2 °C with a 12-h light/dark cycle and a relative humidity of 50 ± 10%. Food and water were given ad libitum. Animals were allowed to acclimatize to the testing facility for a week before being used in the study. Animal group for oral administration was fasted overnight before the study and fed again 4 h after dosing. Mice were given a single dose of test substance intravenously (i.v.) via tail vein injection or orally (p.o.) by a disposable syringe with an oral zonde. While LW6 was administered i.v. (5 mg/kg) or p.o. (5 mg/kg), APA was administered only i.v. (5 mg/kg). The solutions were prepared in dimethylacetamide/Cremophor EL/20% v/v 2-hydroxypropyl β-cyclodextrin in de-ionized water (1/1/3 v/v; i.v. or p.o. for LW6) or ethanol/20% v/v 2-hydroxypropyl β-cyclodextrin in de-ionized water (1/9 v/v; i.v. for APA) and administered at a dose volume of 5 mL/kg for both i.v. and p.o. Blood samples were collected via saphenous vein without the use of anesthesia as described in the earlier methodology study at the time points including 0, 0.25, 0.5, 0.75, 1, 2, 4, 6, 8, and 24 h after oral administration or 0, 0.083, 0.167, 0.25, 0.5, 1, 2, 4, 6, 8, and 24 h after intravenous administration. These samples were collected into Microvette® capillary tubes at predetermined time points. The blood samples were centrifuged under refrigeration at 12,000× g for 3 min and then kept frozen at −20 °C until analysis.
Plasma samples were prepared for analysis by the protein precipitation method. An aliquot of 15 µL from each plasma sample was transferred to a PCR tube (Axygen, Union City, CA, USA). Four volumes of acetonitrile containing the analytical internal standard (IS) 4-methylumbelliferone were added and the resulting mixture was vortexed for 10 min on a Multi-Tube vortexer (VWR International, West Chester, PA, USA), and sonicated for 30 min at room temperature. The tube was centrifuged at 12,000× g for 10 min and the supernatant was analyzed for the test substance. Sample analysis was performed by 3200 Q TRAP LC-MS/MS system (Applied Biosystems, Concord, ON, Canada) in a negative MRM mode. The analytical methods are described below.
Pharmacokinetic parameters were calculated by noncompartmental analysis of the plasma concentration-time profiles using Kinetica^TM 4.4.1 (Thermo Fisher Scientific, Inc., Woburn, MA, USA). The areas under the plasma concentration–time curves (AUC) were calculated by the linear-trapezoidal method. Total body clearance (CL) was calculated as follows: CL = Dose/AUC0–inf. Terminal elimination half-life (t1/2) was calculated by the following equation: t1/2 = 0.693/λz, where λz is the terminal disposition rate constant. Volume of distribution at steady state (Vss) was calculated as follows: Vss = CL × AUMC0–inf/AUC0–inf, where AUMC0–inf is the area under the first moment of the plasma concentration-time curve extrapolated to infinity. Oral bioavailability (F) was calculated using the following equation:(1) F=(AUCpo/Dosepo)/(AUCiv/Doseiv)×100
Fraction of dose converted to a systemically available metabolite was calculated by the following equation, where D is the dose of the parent, AUC(m) is the area under the curve of metabolite, and CL(m) is the systemic clearance of metabolite:(2) % of dose = AUC(m) ×CL(m)/D×parent mol. wt./metabolite mol. wt. ×100 […]

Another data set concerns HIF-1α. Conditions: cited from earlier work.
Another data set in a line: Stability in mouse serum. Type of data set: in vitro ADME. Here is the method:
All incubations were conducted in triplicate at 37 °C in eight-well tube strips placed in an 8 × 12 rack (VWR, Emeryville, CA, USA) with 50 µL of mouse serum in each tube. LW6 (1 mM) dissolved in acetonitrile was added to a final concentration of […] (1% acetonitrile) to initiate the study. The reaction was terminated at 0, 1, 2, 4, and 6 h by adding 150 µL of ice-cold acetonitrile containing the internal standard. The eight-well cluster tube plate was centrifuged at 910× g for 10 min and the supernatant was analyzed by the LC-ESI/MS/MS method described below for quantitation of LW6 and APA.

Data set [3] in a line: Stability in phosphate buffer at physiological pH. Type of data set: physicochemical. Conditions: data not shown.
Another data set can be described thus: in vitro. Conditions: human.
[4] abbreviates: mouse, plasma, 5 mg/kg, plasma, analyte = label, after single i.v. dose of LW6 5 mg/kg, male ICR mice, read-out: t1/2 (terminal) (converted).
The mark [5] stands for this setting: mouse, plasma, analyte = label, after single i.v. dose of LW6 5 mg/kg, male ICR mice.
[6] abbreviates: mouse, plasma, analyte = label, after single p.o. dose of LW6 5 mg/kg, male ICR mice.
Where [7] appears, read: mouse, plasma, analyte = label, after single p.o. dose of LW6 5 mg/kg, male ICR mice, n = 5.
The mark [8] stands for this setting: plasma, analyte = label, after single i.v. dose of LW6 5 mg/kg, male ICR mice.
The mark [9] stands for this setting: plasma, analyte = label, after single p.o. dose of LW6 5 mg/kg, male ICR mice.
Setting [10] is: single i.v. dose of APA 5 mg/kg, male ICR mice, n = 5.
[11] abbreviates: Caco-2, pH 7.4, Typical apparent permeability coefficient (Papp) values.

SMILES strings stand for the structures. Read-outs that look alike come from different tables or passages of the source.

In the case of `O=C(O)COc1ccc(C23CC4CC(CC(C4)C2)C3)cc1` [APA, (4-adamantan-1-yl-phenoxy)acetic acid], the “APA depletion in mouse liver microsomes (in words)” value in data set [1] (APA 1 µM, 0.5 mg/mL microsomes, presence of NADPH (1 mM)) is “progressively decreased”. The “Tumor growth inhibition relative to the control group” value in the data set on HCT116 xenograft was “up to 43.3%”. Also, the half-life was 2.7 ± 0.2 h in data set [2] (setting [4]) and 2.4 ± 0.4 h in data set [2] (mouse, plasma, 5 mg/kg, single i.v. dose of APA 5 mg/kg, male ICR mice, n = 5, read-out: t1/2 (converted)). Further, the Vd is 0.4 ± 0.1 L/kg in data set [2] (mouse, plasma, 5 mg/kg, single i.v. dose of APA 5 mg/kg, male ICR mice, n = 5, read-out: Vss) and 0.5 ± 0.2 L/kg in data set [2] (mouse, plasma, 5 mg/kg, single i.v. dose of APA 5 mg/kg, male ICR mice, n = 5, read-out: Vz). The mean residence time MRT – broadly, a mean duration of stay, worked out from the concentration-time curve – in data set [2] (setting [5]) is 3.6 ± 0.2 h. Further, the clearance in data set [2] (mouse, plasma, single i.v. dose of APA 5 mg/kg, male ICR mice, n = 5, read-out: CL (converted)) is 1.67 mL/min/kg. In addition, the Cmax – broadly, the peak of the concentration-time curve – in data set [2] (setting [6]) stood at 4240 ± 1260 ng/mL. In addition, in data set [2] (setting [7]), the Tmax (as a rule, the time at which the peak concentration occurs) was 0.7 ± 0.1 h. The “AUC0–inf” value is recorded as 17,759.9 ± 3194.1 ng/hr/mL in data set [2] (setting [8]), 14,744.8 ± 5517.4 ng/hr/mL in data set [2] (setting [9]) and 39,624.7 ± 9502.30 ng/hr/mL in data set [2] (setting [10]). The results for the “AUC0–t” value in data set [2] (setting [8]), in data set [2] (setting [9]) and in data set [2] (setting [10]) were 17,731.4 ± 3190.5 ng/hr/mL, 14,615.3 ± 5507.8 ng/hr/mL and 37,703.8 ± 10,162.9 ng/hr/mL, respectively. Further, in data set [2] (setting [10]), the CL came out at 1.7 ± 0 mL/min/kg.
For `COC(=O)c1ccc(O)c(NC(=O)COc2ccc(C34CC5CC(CC(C5)C3)C4)cc2)c1` [LW6], the “Accumulation of HIF-1α” value with HIF-1α is listed as “inhibited”. The HIF-1α protein expression result with HIF-1α (without affecting HIF-1β expression, via regulation of VHL) was “decreased”. In addition, the “LW6 remaining after 60 min microsomal incubation” value turned out to be 63% in data set [1] (1 µM, 0.5 mg/mL microsomes, absence of NADPH) and 65% in data set [1] (1 µM, 0.5 mg/mL microsomes, presence of NADPH (1 mM)). Moreover, the “t1/2 of conversion to APA in liver microsomes” value in data set [1] (1 µM, 0.5 mg/mL mouse liver microsomes) is above 1 h. For the same molecule, in data set [1] (mouse, pooled mouse liver microsomes, pH 7.4, as stated in abstract, read-out: t1/2 of degradation in mouse liver microsomes), the half-life at 1 µM is above 1 h. For the same molecule, the “Permeability across Caco-2 cell monolayers (in words)” value in the data set on Caco-2 cells is “moderately permeable”. Further, in “Stability in mouse serum” (ICR, mouse serum, 5 µM, up to 6 h, read-out: t1/2 of degradation in serum), the half-life at 5 µM is above 6 h. Also, the “Conversion to APA in mouse serum (in words)” value in the data set “Stability in mouse serum” (LW6 5 µM) is “converted slowly to APA”. The “Stability in phosphate buffer” value in data set [3] is listed as “stable”. The Papp (commonly the rate of passage across a membrane or cell layer, normalised by area and donor concentration) at 120 min, 5 µM in the data set “in vitro” (Caco-2, pH 7.4, Papp) came to 2.1 ± 0.4 ×10⁻⁶ cm/s. Further, the “Time beyond which plasma level was below the quantitation limit” value worked out at 4 h in data set [2] (after i.v. LW6 5 mg/kg) and 1 h in data set [2] (after p.o. LW6 5 mg/kg). In addition, the half-life in data set [2] (setting [4]) is 0.6 ± 0.1 h. In addition, the Vd in data set [2] (mouse, plasma, 5 mg/kg, single i.v. dose of LW6 5 mg/kg, male ICR mice, read-out: Vss (volume of distribution at steady state)) is 0.5 ± 0.1 L/kg. Besides, in data set [2] (setting [5]), the mean residence time MRT worked out at 0.3 h. Further, the clearance in data set [2] (mouse, plasma, single i.v. dose of LW6 5 mg/kg, male ICR mice, read-out: CL (systemic clearance) (converted)) is 28.3 mL/min/kg. In addition, in data set [2] (mouse, plasma, oral, LW6 5 mg/kg p.o. vs 5 mg/kg i.v., calculated using AUC0–t, male ICR mice, read-out: F (oral bioavailability)), the bioavailability (in general, the share of a dose that reaches the circulation, judged against a reference dose that is usually intravenous) is 1.7 ± 1.8%. In data set [2] (setting [6]), this molecule yielded a Cmax of 65.5 ± 47.3 ng/mL. Moreover, the Tmax in data set [2] (setting [7]) was found to be 0.3 ± 0.1 h. The “Decrease of plasma exposure of LW6 when administered orally” value in data set [2] (oral vs intravenous, 5 mg/kg) is recorded as “about 60 fold”. In addition, the “AUC0–inf” value in data set [2] (setting [8]) stood at 2957.1 ± 215.4 ng/h/mL. In addition, the “AUC0–t” value turned out to be 2949.3 ± 218.4 ng/h/mL in data set [2] (setting [8]) and 49.5 ± 52.5 ng/h/mL in data set [2] (setting [9]). Further, the Vz in data set [2] (single i.v. dose of LW6 5 mg/kg, male ICR mice) turned out to be 1.6 ± 0.3 Lkg.
As to `COCCc1ccc(OCC(O)CNC(C)C)cc1` (stereo not shown) [Metoprolol, metoprolol], the apparent permeability coefficient (Papp) at 120 min, 5 µM in the data set “in vitro” (Caco-2, pH 7.4, Papp) was 35.3 ± 0.6 ×10⁻⁶ cm/s; in “in vitro” (setting [11]), above 25 ×10⁻⁶ cm/s.
Turning to `CNC(=C[N+](=O)[O-])NCCSCc1ccc(CN(C)C)o1` [Ranitidine, ranitidine], the Papp at 120 min, 5 µM in the data set “in vitro” (Caco-2, pH 7.4, Papp) is 0.8 ×10⁻⁶ cm/s; in the data set “in vitro” (setting [11]), below 2 ×10⁻⁶ cm/s.
